One test deals with PTGER4 (EP4) (Homo sapiens (Human), UniProt P35408). As to the kind of experiment: cell-based.
In a further test the target is EP4 (Homo sapiens (Human), UniProt P35408). Briefly: hEP4 cAMP assay (BT549 breast cancer cells, HTRF cAMP). The test is classed as cell-based. To be noted: antagonistic activity, PGE2 6 nM. The procedure, abridged: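 BT549 breast cancer cells (endogenous EP4) in HBSS/20 mM HEPES/0.2% BSA/2 mM IBMX preincubated 45 min at RT with compound, then stimulated 30 min at RT with 6 nM PGE2 (final). cAMP read by competitive HTRF immunoassay, signal inversely proportional to cAMP.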
Chain of EP4 (P35408 whole entry): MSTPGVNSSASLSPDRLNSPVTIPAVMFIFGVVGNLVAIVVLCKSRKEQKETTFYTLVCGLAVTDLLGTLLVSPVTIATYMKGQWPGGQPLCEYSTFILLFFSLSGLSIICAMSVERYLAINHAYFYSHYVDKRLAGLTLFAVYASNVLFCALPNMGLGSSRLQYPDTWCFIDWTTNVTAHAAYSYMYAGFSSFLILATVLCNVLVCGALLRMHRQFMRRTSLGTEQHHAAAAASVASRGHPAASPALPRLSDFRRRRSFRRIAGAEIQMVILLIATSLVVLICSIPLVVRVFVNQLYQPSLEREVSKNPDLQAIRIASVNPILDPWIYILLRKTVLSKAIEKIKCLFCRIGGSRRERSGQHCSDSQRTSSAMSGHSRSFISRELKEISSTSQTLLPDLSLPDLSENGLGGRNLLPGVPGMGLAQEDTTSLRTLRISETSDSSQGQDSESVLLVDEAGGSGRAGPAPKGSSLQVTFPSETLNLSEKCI
A general note: Changes in cAMP serve as a functional read-out for many G protein-coupled receptors.

A further test deals with EP2 (Homo sapiens (Human), UniProt P43116). Briefly: hEP2 cAMP assay (SF295 glioblastoma cells, HTRF cAMP). The test is classed as cell-based. The settings on record: antagonistic activity. The gist of the method: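 PGE2-driven cAMP accumulation was measured by HTRF in SF295 cells, which express endogenous EP2 only. Cells in assay buffer with 2 mM IBMX were pre-incubated 45 min at RT, then incubated 30 min at RT. Detection used competition between cellular cAMP and d2-cAMP for a cryptate anti-cAMP antibody.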
Chain of EP2 (P43116 whole entry): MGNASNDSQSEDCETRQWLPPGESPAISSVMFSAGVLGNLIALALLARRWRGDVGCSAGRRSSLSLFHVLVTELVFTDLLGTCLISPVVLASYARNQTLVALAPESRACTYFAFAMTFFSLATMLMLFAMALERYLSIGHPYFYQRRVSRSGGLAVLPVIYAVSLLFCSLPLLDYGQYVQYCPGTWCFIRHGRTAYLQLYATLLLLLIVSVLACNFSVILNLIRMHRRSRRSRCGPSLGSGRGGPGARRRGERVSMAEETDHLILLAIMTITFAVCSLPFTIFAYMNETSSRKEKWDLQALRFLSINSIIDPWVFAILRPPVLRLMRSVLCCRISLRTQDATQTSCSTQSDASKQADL

For a further test, the target named is PTGER2 (EP2) (Homo sapiens (Human), UniProt P43116). Briefly: hEP2 b-arrestin assay (PathHunter HEK 293 PTGER2 b-arrestin cells). The test is classed as cell-based. The settings on record: antagonistic activity, beta-arrestin assay; read-out: hEP2 b-arr IC50. As for the experimental part:
Plate is pre-incubated 15 minutes at 37° C. Then five microliters of PGE2 (final conc. 5 μM) are transferred into the assay plate. Plate is incubated 120 minutes at 37° C.
(each concentration is measured in duplicate)

Among the data in patent US11839613B2, “Pyrimidine derivatives as PGE2 receptor modulators” (IDORSIA PHARMACEUTICALS LTD, priority 2017, dated 2023) are IC50 values, retold here.

Chain of PTGER4 (EP4) (P35408 whole entry): as the sequence (P35408 whole entry) above
Chain of PTGER2 (EP2) (P43116 whole entry): as the sequence (P43116 whole entry) above

In general, IC50 refers to the point on the concentration scale where inhibition reaches its midpoint. Regarding `COc1cc2c(cc1CCNc1cc(-c3ccc(C(=O)O)c(SC)c3)ncn1)OCCO2` [Ex 116, 4-{6-[2-(7-Methoxy-2,3-dihydro-benzo[1,4]dioxin-6-yl)-ethylamino]-pyrimidin-4-yl}-2-methylsulfanyl-benzoic acid], the IC50 at PTGER4 (EP4) is 135 nM; against EP4, 86 nM; on EP2 it was 23 nM; on PTGER2 (EP2) it was 76 nM.

As to `CCOc1cc(-c2cc(NCCc3cc4sccc4cc3OC)ncn2)ccc1C(=O)O` [Ex 218], the IC50 at PTGER4 (EP4) came to 651 nM; at EP4 it was 278 nM; at EP2 it was 405 nM; on PTGER2 (EP2) it was 160 nM.

For the compound `CCCc1cc(-c2cc(NCCc3ccc4ccccc4c3C)ncn2)ccc1C(=O)O` [Ex 28, 4-{6-[2-(1-Methyl-naphthalen-2-yl)-ethylamino]-pyrimidin-4-yl}-2-propyl-benzoic acid], the IC50 against PTGER4 (EP4) came to 96 nM; at EP4, 61 nM; at EP2 it was 74 nM; at PTGER2 (EP2) it was 135 nM.

With `CCOc1cc(-c2cc(NCCc3ccc4ccccc4c3C)ncn2)sc1C(=O)NS(N)(=O)=O` [Example 354, 3-Ethoxy-5-(6-((2-(1-methylnaphthalen-2-yl)ethyl)amino)pyrimidin-4-yl)-N-sulfamoylthiophene-2-carboxamide], the IC50 was found to be 32 nM at PTGER4 (EP4), 56 nM on EP4, 27 nM at EP2 and 41 nM at PTGER2 (EP2).

Turning to `O=C(O)c1ccc(-c2cc(NCCc3cc4ccoc4cc3F)ncn2)cc1OC1CCC1` [Ex 200], the IC50 against PTGER4 (EP4) was 510 nM; on EP4, 227 nM; against EP2, 108 nM; on PTGER2 (EP2), 57 nM.

For `CCOc1cc(-c2cc(NCCc3cc4ccoc4cc3F)ncn2)ccc1OCC(=O)O` [Ex 142, (2-Ethoxy-4-{6-[2-(6-fluoro-benzofuran-5-yl)-ethylamino]-pyrimidin-4-yl}-phenoxy)-acetic acid], the IC50 at PTGER4 (EP4) stood at 180 nM; against EP4, 127 nM; at EP2, 177 nM; at PTGER2 (EP2) it was 121 nM.

Take `COc1cc2c(cc1CCNc1cc(-c3ccc4oc(C(=O)O)cc4c3)ncn1)OCCO2` [Ex 93, 5-{6-[2-(7-Methoxy-2,3-dihydro-benzo[1,4]dioxin-6-yl)-ethylamino]-pyrimidin-4-yl}-benzofuran-2-carboxylic acid]: the IC50 on PTGER4 (EP4) came out at 1260 nM; on EP4, 118 nM; against EP2, 85 nM; at PTGER2 (EP2) it was 275 nM.

Turning to `CCOc1cc(-c2cc(NCCc3ccc4scc(C)c4c3)ncn2)sc1C(=O)O` [Ex 47, 3-Ethoxy-5-{6-[2-(3-methyl-benzo[b]thiophen-5-yl)-ethylamino]-pyrimidin-4-yl}-thiophene-2-carboxylic acid], the IC50 is 85 nM at PTGER4 (EP4), 22 nM against EP4, 91 nM at EP2 and 45 nM at PTGER2 (EP2).

For `CCOc1cc(-c2cc(NCCc3ccc4ccccc4c3C)ncn2)ccc1-c1nnn[nH]1` [Ex 156], the IC50 against PTGER4 (EP4) came out at 36 nM; against EP4, 154 nM; on EP2 it was 221 nM; on PTGER2 (EP2), 107 nM.

On to `CCCc1cc(-c2cc(NCCc3cc(F)c4sccc4c3)ncn2)ccc1CC(=O)O` [Example 390, (4-{6-[2-(7-Fluoro-benzo[b]thiophen-5-yl)-ethylamino]-pyrimidin-4-yl}-2-propyl-phenyl)-acetic acid], for which the IC50 against PTGER4 (EP4) worked out at 29 nM; against EP4, 32 nM; at EP2 it was 590 nM; on PTGER2 (EP2) it was 264 nM.

As for `CCOc1cc(-c2cc(NCCc3ccc4c(c3)OCC4)ncn2)sc1C(=O)O` [Ex 67, 5-{6-[2-(2,3-Dihydro-benzofuran-6-yl)-ethylamino]-pyrimidin-4-yl}-3-ethoxy-thiophene-2-carboxylic acid], the IC50 was found to be 40 nM at PTGER4 (EP4), 36 nM against EP4, 110 nM at EP2 and 123 nM at PTGER2 (EP2).

For the compound `COc1cc2occc2cc1CCNc1cc(-c2ccc(C(=O)O)c(OC3CCC3)c2)ncn1` [Ex 100, 2-Cyclobutoxy-4-{6-[2-(6-methoxy-benzofuran-5-yl)-ethylamino]-pyrimidin-4-yl}-benzoic acid], the IC50 against PTGER4 (EP4) worked out at 176 nM; at EP4, 67 nM; on EP2 it was 29 nM; on PTGER2 (EP2), 35 nM.

Regarding `CCOc1cc(-c2cc(NCCc3ccc4sccc4c3)ncn2)ccc1CC(=O)O` [Ex 189], the IC50 against PTGER4 (EP4) amounted to 108 nM; at EP4, 208 nM; at EP2 it was 530 nM; on PTGER2 (EP2) it was 158 nM.

Regarding `CCOc1cc(-c2cc(NCCc3cc4cccnc4cc3F)ncn2)sc1-c1nnn[nH]1` [Example 349, {6-[4-Ethoxy-5-(1H-tetrazol-5-yl)-thiophen-2-yl]-pyrimidin-4-yl}-[2-(7-fluoro-quinolin-6-yl)-ethyl]-amine], the IC50 against PTGER4 (EP4) was 4 nM; against EP4, 14 nM; against EP2, 103 nM; on PTGER2 (EP2), 109 nM.

Turning to `CCOc1cc(-c2cc(NCCc3ccc4ccccc4c3C)ncn2)sc1CCC(=O)O` [Ex 57, 3-(3-Ethoxy-5-{6-[2-(1-methyl-naphthalen-2-yl)-ethylamino]-pyrimidin-4-yl}-thiophen-2-yl)-propionic acid], the IC50 is 34 nM on PTGER4 (EP4), 28 nM on EP4, 191 nM against EP2 and 195 nM at PTGER2 (EP2).

In the case of `CCOc1cc(-c2cc(NCCc3ccc4ccn(C)c4c3)ncn2)sc1C(=O)O` [Ex 42, 3-Ethoxy-5-{6-[2-(1-methyl-1H-indol-6-yl)-ethylamino]-pyrimidin-4-yl}-thiophene-2-carboxylic acid], the IC50 at PTGER4 (EP4) amounted to 25 nM; against EP4, 21 nM; against EP2, 137 nM; at PTGER2 (EP2), 240 nM.

As to `CCOc1cc2c(cc1CCNc1cc(-c3ccc(C(=O)O)c(SC)c3)ncn1)OCCO2` [Ex 137, 4-{6-[2-(7-Ethoxy-2,3-dihydro-benzo[1,4]dioxin-6-yl)-ethylamino]-pyrimidin-4-yl}-2-methylsulfanyl-benzoic acid], the IC50 at PTGER4 (EP4) is 124 nM; at EP4 it was 120 nM; at EP2 it was 4 nM; at PTGER2 (EP2), 14 nM.

`CCOc1cc(-c2cc(NCCc3cc4c(cc3C)OCCO4)ncn2)sc1C(=O)O` [Ex 30, 3-Ethoxy-5-{6-[2-(7-methyl-2,3-dihydro-benzo[1,4]dioxin-6-yl)-ethylamino]-pyrimidin-4-yl}-thiophene-2-carboxylic acid]: the IC50 on PTGER4 (EP4) was 51 nM; on EP4, 17 nM; against EP2, 14 nM; at PTGER2 (EP2), 29 nM.

Turning to `CCOc1cc(-c2cc(NCCc3c(OC)cc4occc4c3C)ncn2)ccc1OCC(=O)O` [Ex 102, (2-Ethoxy-4-{6-[2-(6-methoxy-4-methyl-benzofuran-5-yl)-ethylamino]-pyrimidin-4-yl}-phenoxy)-acetic acid], the IC50 was 141 nM against PTGER4 (EP4), 70 nM against EP4, 6 nM on EP2 and 9 nM at PTGER2 (EP2).

As to `CSc1cc(-c2cc(NCCc3ccc4ccoc4c3)ncn2)ccc1C(=O)O` [Ex 250, 4-[6-(2-Benzofuran-6-yl-ethylamino)-pyrimidin-4-yl]-2-methylsulfanyl-benzoic acid], the IC50 was 609 nM against PTGER4 (EP4), 287 nM against EP4, 77 nM at EP2 and 112 nM on PTGER2 (EP2).

Regarding `CCOc1cc(-c2cc(NCCc3ccc4ccccc4c3C)ncn2)ccc1NCC(=O)O` [Ex 205], the IC50 stood at 47 nM against PTGER4 (EP4), 244 nM against EP4, 190 nM at EP2 and 118 nM at PTGER2 (EP2).

Take `CCOc1cc(-c2cc(NCCc3cc4ccoc4cc3OC)ncn2)ccc1C(=O)O` [Ex 151, 2-Ethoxy-4-{6-[2-(6-methoxy-benzofuran-5-yl)-ethylamino]-pyrimidin-4-yl}-benzoic acid]: the IC50 was 618 nM against PTGER4 (EP4), 145 nM at EP4, 35 nM against EP2 and 32 nM at PTGER2 (EP2).

Take `CSc1cc(-c2cc(NCCc3ccc4cc[nH]c4c3)ncn2)ccc1C(=O)O` [Ex 328, 4-{6-[2-(1H-Indol-6-yl)-ethylamino]-pyrimidin-4-yl}-2-methylsulfanyl-benzoic acid]: the IC50 against PTGER4 (EP4) stood at 919 nM; at EP4, 938 nM; against EP2, 108 nM; on PTGER2 (EP2), 287 nM.

In the case of `CCOc1cc(-c2cc(NCCc3ccc4sccc4c3)ncn2)sc1-c1noc(=O)[nH]1` [Example 340, 3-{5-[6-(2-Benzo[b]thiophen-5-yl-ethylamino)-pyrimidin-4-yl]-3-ethoxy-thiophen-2-yl}-[1,2,4]oxadiazol-5(4H)-one], the IC50 against PTGER4 (EP4) came out at 3 nM; against EP4 it was 11 nM; against EP2 it was 104 nM; on PTGER2 (EP2), 12 nM.

For `CCOc1cc(-c2cc(NCCc3cc(Cl)c4sccc4c3)ncn2)sc1C(=O)O` [Example 359, 5-{6-[2-(7-Chloro-benzo[b]thiophen-5-yl)-ethylamino]-pyrimidin-4-yl}-3-ethoxy-thiophene-2-carboxylic acid], the IC50 on PTGER4 (EP4) came out at 9 nM; against EP4, 2 nM; on EP2, 61 nM; on PTGER2 (EP2) it was 40 nM.

For `C=C(C(=O)O)c1ccc(-c2cc(NCCc3cc4c(cc3OC)OCCO4)ncn2)cc1` [Ex 337], the IC50 was found to be 1320 nM on PTGER4 (EP4), 1430 nM against EP4, 1310 nM at EP2 and 664 nM on PTGER2 (EP2).
